From patent publication US6692937B2, “DNA encoding small and intermediate conductance calcium-activated potassium channels” (ICAgen, Incorporated, priority 1997, dated 2004)
Read-outs that look alike come from different tables or passages of the source.

How the values were obtained:
Type in all cases: cell-based
hIK1 = biological target: T1, hIK1 (Homo sapiens, UniProt O15554); assay: Macroscopic hIK1 currents in macropatches excised from Xenopus oocytes
T1 construct: expressed in transfected cells; host or cells: Xenopus oocytes injected with SP6-transcribed mRNA from vector pBF
Description: 3B. Example 3B describes the electrophysiology of the hIK1 channel. All hIK1 channel subunits were subcloned into the oocyte expression vector pBF (unpublished, graciously provided by Dr. B. Fakler) which provides 5′ and 3′ untranslated regions from the Xenopus β-globin gene flanking a polylinker containing multiple restriction sites. In vitro mRNAs were generated using SP6 polymerase (GibcoBRL); following synthesis, mRNAs were evaluated spectrophotometrically and by ethidium bromide staining after agarose gel electrophoresis.
As described above, Xenopus care and handling were in accordance with the highest standards of institutional guidelines. Frogs underwent no more than two surgeries, separated by at least three weeks, and All surgeries were performed using well established techniques. Frogs were anesthetized with an aerated solution of 3-aminobenzoic acid ethyl ester. Oocytes were studied 2-14 days after injection with 0.5-5 ng of mRNA.
Inside-out macropatches were excised into an intracellular solution containing 116 mM K-gluconate. 4 mM KCl, 10 mM HEPES (pH 7.2, adjusted with KOH) supplemented with CaCl2 to give free calcium concentration of 5 μM; the proportion of calcium binding to gluconate was determined by a computer program (CaBuf assuming a stability constant for Ca^2+ gluconate of 15.9M^−1 (Dawson et al., 1969). To obtain Ca^2+ concentrations below 1 μM, 1 mM EGTA was added to the bath solution and CaCl2 was added as calculated using the CaBuf program and published stability constants (Fabiato and Fabiato, 1979). Electrodes were pulled from thin-wailed, filamented borosilicate glass (World Precision Instruments) and filled with 116 mM K-gluconate, 4 mM KCl, 10 mM HEPES (pH 7.2). Electrode resistance was typically 2-5 MΩ. For outside-out macropatches, the solutions were reversed. Membrane patches were voltage clamped using an Axopatch 200A amplifier (Axon Instruments). The data were low-pass Bessel filtered at 1 kH and acquired using Pulse software (HEKA Electronik). Analysis was performed using Pulse, Kaleidagraph (Abelbeck), or IGOR (Wavemetrics) software. Unless otherwise stated all experiments were performed at room temperature from a holding potential of 0 mV. 2.5 second voltage ramps from −100 to either 60 or 100 mV were acquired at a sampling frequency of 500 Hz. Values were expressed as mean±SD. Statistical differences were determined using an unpaired t-test; p values <0.05 were considered significant.
(§1) To compare hIK1 and SK2, normalized current was plotted as a function of Ca^2+ concentration, and the data points fitted with the Hill equation.

rSK2 = biological target: T2, rSK2 (Rattus norvegicus, UniProt P70604); assay: Macroscopic currents in inside-out macropatches excised from Xenopus oocytes expressing rSK2
T2 construct: expressed in transfected cells; host or cells: Xenopus oocytes injected with in vitro transcribed mRNA
T2 sequence (P70604 whole entry): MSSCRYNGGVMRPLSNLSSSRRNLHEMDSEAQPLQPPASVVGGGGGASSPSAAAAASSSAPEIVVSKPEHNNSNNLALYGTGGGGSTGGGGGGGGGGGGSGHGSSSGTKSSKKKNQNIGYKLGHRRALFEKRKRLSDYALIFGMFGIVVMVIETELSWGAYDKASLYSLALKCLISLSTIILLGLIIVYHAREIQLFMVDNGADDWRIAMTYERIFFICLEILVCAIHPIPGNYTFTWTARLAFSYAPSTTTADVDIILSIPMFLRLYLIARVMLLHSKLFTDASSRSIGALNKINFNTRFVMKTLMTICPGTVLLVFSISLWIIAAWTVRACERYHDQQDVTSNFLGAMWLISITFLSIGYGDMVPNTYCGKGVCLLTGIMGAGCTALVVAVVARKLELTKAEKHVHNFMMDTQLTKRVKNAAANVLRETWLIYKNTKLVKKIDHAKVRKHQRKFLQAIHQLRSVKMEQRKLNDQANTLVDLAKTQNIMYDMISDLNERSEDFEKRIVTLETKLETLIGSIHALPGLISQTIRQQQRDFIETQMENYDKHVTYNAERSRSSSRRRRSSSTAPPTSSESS
Description: (§2) Electrode resistance was typically 2-5 MΩ. Membrane patches were voltage clamped using an Axopatch 200A amplifier (Axon Instruments).
as §1

hSK1 = biological target: T3, hSK1 (Homo sapiens, UniProt Q92952); assay: Macroscopic currents in inside-out macropatches excised from Xenopus oocytes expressing hSK1
T3 construct: expressed in transfected cells; host or cells: Xenopus oocytes injected with in vitro transcribed mRNA
T3 sequence (Q92952 other isoform, or with tags, fused parts or gaps): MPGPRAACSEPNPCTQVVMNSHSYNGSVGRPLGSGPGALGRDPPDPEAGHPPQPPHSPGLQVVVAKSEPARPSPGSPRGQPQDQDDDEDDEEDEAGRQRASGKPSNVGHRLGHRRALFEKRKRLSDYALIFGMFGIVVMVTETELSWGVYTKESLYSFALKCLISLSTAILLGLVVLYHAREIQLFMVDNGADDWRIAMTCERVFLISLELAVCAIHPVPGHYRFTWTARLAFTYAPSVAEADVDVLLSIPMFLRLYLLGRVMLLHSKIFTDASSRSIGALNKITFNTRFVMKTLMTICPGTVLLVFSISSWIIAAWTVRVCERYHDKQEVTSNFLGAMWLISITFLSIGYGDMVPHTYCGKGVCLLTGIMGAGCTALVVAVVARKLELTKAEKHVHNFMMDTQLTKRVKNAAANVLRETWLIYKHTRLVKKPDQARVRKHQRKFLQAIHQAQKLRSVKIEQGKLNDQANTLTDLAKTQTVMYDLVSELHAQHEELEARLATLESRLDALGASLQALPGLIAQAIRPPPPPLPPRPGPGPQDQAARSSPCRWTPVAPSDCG
Description: as §2

`CC(=O)N1CCN(c2ccc(OCC3COC(Cn4ccnc4)(c4ccc(Cl)cc4Cl)O3)cc2)CC1` (stereo not shown) [ketoconazole] was tested, and the “block of hIK1” value (hIK1; 10 μM ketoconazole) was 24±6%.
In the case of `COc1cc2c3cc1Oc1cc(ccc1O)C[C@@H]1c4c(cc(OC)c(O)c4Oc4ccc(cc4)C[C@@H]3N(C)CC2)CC[N+]1(C)C` [dTC, d-tubocurare, reference compound], the Kd (rSK2; 5 μM Ca2+, inside-out macropatches, dTC in patch pipette, read-out: Kd for block of rSK2 currents) is reported as 2400 nM, the “fold less sensitive, hSK1 versus rSK2” value (hSK1; ratio of Kd hSK1 to Kd rSK2) is reported as “approximately 30 fold” and the Kd (hSK1; read-out: Kd for block of hSK1) is reported as 76200 nM.
In the case of `[Ca+2]` [calcium], the “Hill coefficient of calcium dependence, rSK2” value (rSK2; Hill fit, 8 patches) is reported as 4.81±1.46, the “Hill coefficient of Ca2+-dependence, SK2” value (rSK2; n=4) is reported as 3.5±0.4 and the Kd (rSK2; slope conductance at reversal potential versus calcium, Hill fit, 8 patches, read-out: average Kd for calcium, rSK2) is reported as 630 ± 230 nM. For the same compound, the “Hill coefficient of calcium dependence, hSK1” value (hSK1; Hill fit) was 3.90±0.45, the Kd (hSK1; Hill fit, read-out: Kd for calcium, hSK1) was 700 ± 60 nM and the “Hill coefficient of Ca2+-dependence, hIK1” value (hIK1; n=7) was 1.7±0.3. It also gave an EC50 (hIK1; normalized current versus Ca2+ concentration, n=7, read-out: K0.5 (concentration for half-maximal activation), hIK1) of 320 ± 30 nM.
With “iberiotoxin (QFTDVDCSVSKECWSVCKDLFGVDRGKCMGKKCRCYQ) [IBX]” the “block of hIK1 currents” value (hIK1; 50 nM IBX) was 15±3%.
`CC(C)C[C@@H]1NC(=O)[C@H](C)NC(=O)[C@H]([C@@H](C)O)NC(=O)[C@H](CCC(=O)O)NC(=O)[C@@H]2CCCN2C(=O)[C@H](C)NC(=O)[C@H](CCCCN)NC(=O)[C@@H]2CSSC[C@@H](C(=O)N[C@@H](CCC(N)=O)C(=O)N[C@@H](CCC(N)=O)C(=O)N[C@@H](Cc3cnc[nH]3)C(N)=O)NC(=O)[C@H](CCCNC(=N)N)NC(=O)[C@H](CCCNC(=N)N)NC(=O)[C@H](C)NC(=O)[C@H](CSSC[C@H](N)C(=O)N[C@@H](CC(N)=O)C(=O)N2)NC1=O` [apamin] was tested, and the “reduction of hIK1 currents” value (hIK1; 100 nM apamin) was 12±5%.
